From paper PMC6130710 (Pharmaceutical Biology, 2017)
Values after ≈ are worked out from the molar mass of the structure shown. Where two headings read alike, the source gives them in different places.

Tests used:
[1] = molecular target: rat intestinal α-glucosidase (maltase); assay: rat intestinal α-glucosidase (maltase) inhibition assay; format: biochemical; conditions: rat intestine; for IC50: compounds, Table 2
Experimental: (§1) 1 D and 2 D NMR spectra were recorded on a Bruker 400 AVANCE spectrometer, and the chemical shifts were reported in parts per million (ppm) using tetramethylsilane (TMS) as the internal standard. Melting points were determined on a Fisher-Johns Melting Point apparatus. Adsorbents such as silica gel 60 (Merck) were used for column and radial (chromatotron model 7924 T, Harrison Research) chromatographies. Merck silica gel 60F254 plates were used for TLC. HRESIMS spectra were obtained using a Bruker MICROTOF model mass spectrometer. UV-visible absorption spectra were recorded using a UV-2550 (SHIMADZU) UV-Vis spectrometer (Shimadzu, Kyoto, Japan). α-Glucosidase (EC 3.2.1.20) from Saccharomyces cerevisiae and 4-nitrophenyl-α-D-glucopyranoside (p-NPG) were obtained from Sigma-Aldrich (St. Louis, MO). Acarbose was obtained from Bayer Vitol Leverkusen, Germany. Rat intestinal acetone powder was supplied by Sigma Aldrich.
(§2) Moreover, previous procedure (Damsud et al. [2013]) was also applied to determine inhibitory activity of isolated compounds against intestinal α-glucosidases (maltase and sucrase). Briefly, 10 μL of the test sample and substrate solution (maltose: 10 mM, 20 μL; sucrose: 100 mM, 20 μL, respectively) in 0.1 M phosphate buffer (pH 6.9) were incubated at 37 °C (20 min for maltase and 60 min for sucrase). The mixture was discontinued in boiling water for 10 min, and glucose released from the reaction was converted to quinoneimine using a commercial Glu Kit (Human, Germany). The absorbance of final product was determined at 503 nm, and percent inhibition was calculated using the aforementioned equation.

[2] = molecular target: T1, α-Glucosidase (EC 3.2.1.20) from Saccharomyces cerevisiae (Baker's yeast) (Saccharomyces cerevisiae, UniProt P53341); assay: biochemical
T1 construct: purchased Sigma-Aldrich (St. Louis, MO)
T1 sequence (P53341 whole entry): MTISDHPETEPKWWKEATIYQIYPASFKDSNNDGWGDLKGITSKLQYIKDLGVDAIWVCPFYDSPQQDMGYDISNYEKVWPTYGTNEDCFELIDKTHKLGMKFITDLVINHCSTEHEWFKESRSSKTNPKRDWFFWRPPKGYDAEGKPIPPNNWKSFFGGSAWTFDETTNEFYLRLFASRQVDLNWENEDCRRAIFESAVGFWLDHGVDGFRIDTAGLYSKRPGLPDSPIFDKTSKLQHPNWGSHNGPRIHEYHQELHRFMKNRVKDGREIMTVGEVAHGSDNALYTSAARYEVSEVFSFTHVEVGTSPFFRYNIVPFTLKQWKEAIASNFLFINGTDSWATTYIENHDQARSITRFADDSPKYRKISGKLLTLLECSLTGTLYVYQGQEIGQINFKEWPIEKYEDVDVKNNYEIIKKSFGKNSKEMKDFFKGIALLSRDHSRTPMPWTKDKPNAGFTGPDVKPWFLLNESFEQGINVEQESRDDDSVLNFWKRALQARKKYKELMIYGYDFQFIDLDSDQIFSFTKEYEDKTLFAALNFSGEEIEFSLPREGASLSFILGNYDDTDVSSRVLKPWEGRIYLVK
Experimental: as §1, with “Acarbose was obtained from Bayer Vitol Leverkusen, Germany.” left out
The evaluation of the inhibitory activity of all compounds against yeast and rat intestinal (maltase and sucrase) α-glucosidases was applied from a previous procedure (Damsud et al. [2013]). The inhibitory effect against yeast α-glucosidase was determined using the protocol previously described. Briefly, 10 μL of sample was mixed with α-glucosidase (0.1 U/mL) in 1 mM phosphate buffer (pH 6.9) and incubated at 37 °C for 10 min. The reaction mixture was added with 1 mM p-nitrophenyl-α-D-glucopyranoside (PNPG, 50 μL) followed by additional 20 min incubation. p-Nitrophenoxide liberated from the reaction was quantified by a microplate reader (UV 405 nm) after the addition of 1 M Na2CO3 (100 μL). The percent inhibition was deduced using the following equation. (A0-A1)/A0×100 where A1 and A0 are absorbances with and without the sample, respectively.

[3] = DPPH radical scavenging activity
Experimental: The antioxidant activity of the extract was evaluated through the free radical scavenging effect on 2,2′-diphenyl-1-picrylhydrazyl (DPPH) (Sigma) radical as previously reported (Yen & Hsieh [1997]) with slight modifications. 100 μL of 0.10 mM DPPH ethanolic solution was added to 20 μL of the sample with various concentrations. The mixture was thoroughly mixed and kept in the dark for 30 min. The absorbance was measured at 517 nm using a Sunrise microplate reader spectrophotometer.

[4] = molecular target: T2, rat intestinal α-glucosidase (sucrase) (Rattus norvegicus, UniProt P23739); assay: rat intestinal α-glucosidase (sucrase) inhibition assay; format: biochemical; conditions: rat intestine; compounds, Table 2
T2 construct: tissue Sigma Aldrich; host or cells: rat intestinal acetone powder
T2 sequence (P23739 1014-1841 limits assumed): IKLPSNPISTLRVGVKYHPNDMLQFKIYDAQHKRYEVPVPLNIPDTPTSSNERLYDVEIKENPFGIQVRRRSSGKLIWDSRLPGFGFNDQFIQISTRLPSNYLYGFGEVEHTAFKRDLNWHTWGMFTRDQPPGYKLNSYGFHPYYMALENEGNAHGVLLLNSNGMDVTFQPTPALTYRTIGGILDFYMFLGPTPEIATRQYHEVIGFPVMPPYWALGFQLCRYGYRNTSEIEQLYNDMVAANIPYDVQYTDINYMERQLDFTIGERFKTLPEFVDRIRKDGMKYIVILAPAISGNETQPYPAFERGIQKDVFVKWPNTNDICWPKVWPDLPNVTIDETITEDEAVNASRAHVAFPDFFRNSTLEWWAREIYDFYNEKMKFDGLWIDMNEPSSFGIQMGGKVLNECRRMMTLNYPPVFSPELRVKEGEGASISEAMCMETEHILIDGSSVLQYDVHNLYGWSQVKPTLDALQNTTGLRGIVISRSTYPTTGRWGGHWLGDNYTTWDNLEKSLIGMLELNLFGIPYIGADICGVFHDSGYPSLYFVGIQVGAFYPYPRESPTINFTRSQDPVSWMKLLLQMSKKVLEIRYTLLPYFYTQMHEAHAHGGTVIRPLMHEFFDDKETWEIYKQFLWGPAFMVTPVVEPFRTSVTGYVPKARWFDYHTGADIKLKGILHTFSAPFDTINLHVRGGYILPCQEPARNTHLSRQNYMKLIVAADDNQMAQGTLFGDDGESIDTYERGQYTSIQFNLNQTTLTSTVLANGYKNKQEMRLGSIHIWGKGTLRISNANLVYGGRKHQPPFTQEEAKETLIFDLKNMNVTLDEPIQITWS
T2 sequence (P23739 1-1013 partner limits assumed): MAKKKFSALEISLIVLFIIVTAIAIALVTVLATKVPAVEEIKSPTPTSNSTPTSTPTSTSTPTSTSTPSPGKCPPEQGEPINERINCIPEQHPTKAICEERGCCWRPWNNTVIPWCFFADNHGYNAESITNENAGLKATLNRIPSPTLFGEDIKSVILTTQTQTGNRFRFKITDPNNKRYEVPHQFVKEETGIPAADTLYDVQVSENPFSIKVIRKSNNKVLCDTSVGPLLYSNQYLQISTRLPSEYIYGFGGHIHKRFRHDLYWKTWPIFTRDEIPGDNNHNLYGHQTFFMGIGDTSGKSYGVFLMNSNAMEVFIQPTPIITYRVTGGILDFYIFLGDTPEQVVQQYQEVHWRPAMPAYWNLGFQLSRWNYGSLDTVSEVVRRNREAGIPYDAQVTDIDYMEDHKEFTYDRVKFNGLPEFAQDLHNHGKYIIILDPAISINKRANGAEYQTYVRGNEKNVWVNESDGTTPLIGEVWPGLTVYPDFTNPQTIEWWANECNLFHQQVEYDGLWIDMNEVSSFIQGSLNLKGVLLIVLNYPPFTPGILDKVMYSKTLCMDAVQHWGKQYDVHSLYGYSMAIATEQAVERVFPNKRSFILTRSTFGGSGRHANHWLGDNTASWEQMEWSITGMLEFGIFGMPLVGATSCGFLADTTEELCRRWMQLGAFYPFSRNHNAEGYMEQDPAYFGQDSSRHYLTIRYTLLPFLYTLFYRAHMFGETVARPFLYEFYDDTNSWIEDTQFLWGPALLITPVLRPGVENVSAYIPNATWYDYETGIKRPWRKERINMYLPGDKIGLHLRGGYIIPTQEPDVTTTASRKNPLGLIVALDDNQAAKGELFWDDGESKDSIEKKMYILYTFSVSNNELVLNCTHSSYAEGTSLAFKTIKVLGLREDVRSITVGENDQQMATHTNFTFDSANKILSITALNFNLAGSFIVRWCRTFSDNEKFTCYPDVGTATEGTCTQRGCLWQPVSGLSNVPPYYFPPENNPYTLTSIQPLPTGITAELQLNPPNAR
Experimental: as §1, with “Acarbose was obtained from Bayer Vitol Leverkusen, Germany.” left out
as §2

yeast α-glucosidase = molecular target: T3, yeast α-glucosidase (Saccharomyces cerevisiae, UniProt P53341); assay: enzyme kinetic study (Lineweaver–Burk plots) against yeast α-glucosidase; format: biochemical
T3 construct: purchased Sigma-Aldrich (St. Louis, MO)
T3 sequence (P53341 whole entry): as the sequence (P53341 whole entry) above
Source text: Figure 2S. Lineweaver-Burk plots for inhibitory activity of compound 2 against yeast α- […]
Figure 3S. Secondary plot of slope vs [I] for deduction of Ki of compound 2 against yeast α- […]
Figure 4S. Secondary plot of intercept vs [I] for deduction of K′i of compound 2 against yeast […]
Figure 5S. The hydrophobic analysis of compounds 1 (A) and 2 (B). The H-bond interactions were shown as green dotted lines and the hydrophobic interactions with surrounding amino acids are shown as arcs with spokes radiating towards the inhibitor. These schematic diagrams were generated using LigPlot+ software (Laskowski & Swindells, 2011).
Ahmad FBH, Moghaddam MG, Basri M, Abdul Rahman MB. 2010. Anticancer activity of 3-O-acylated betulinic acid derivatives obtained by enzymatic synthesis. Biosci […]

[5] = compounds, Table 2, read-out: IC50 Baker's yeast α-glucosidase
[6] = IC50 Baker's yeast α-glucosidase, compounds, Table 2

SMILES: COc1cc([C@H]2c3c(cc(OC)c(O)c3OC)C[C@@H](CO)[C@@H]2CO[C@@H]2O[C@H](CO)[C@@H](O)[C@H](O)[C@H]2O)cc(OC)c1O [Compound 4, (+)-lyoniresinol-3α-O-β-D-glucopyranoside]
- IC50 [1]: 373 ± 1.05 µM
- IC50 [2, 5]: > 0.6 mM
- IC50 ([3]; compounds, Table 2): 3795 ± 0.42 µM
- IC50 [4]: 1214 ± 2.01 µM

SMILES: C=C(C)[C@@H]1CC[C@]2(C(=O)O)CC[C@]3(C)[C@H](CC[C@@H]4[C@@]5(C)CC[C@H](OC(=O)CCCCC)C(C)(C)[C@@H]5CC[C@]43C)[C@@H]12 [Compound 2e]
- IC50 [1]: > 3000 µM
- IC50 [2, 5]: 0.0721 ± 0.00154 mM
- IC50 ([3]; compounds, Table 2): > 10000 µM
- IC50 [4]: > 3000 µM

SMILES: C=C(C)[C@@H]1CC[C@]2(C)CC[C@]3(C)[C@H](CC[C@@H]4[C@@]5(C)CC[C@H](O)C(C)(C)[C@@H]5CC[C@]43C)[C@@H]12 [Compound 1, lupeol]
- IC50 [1]: > 3000 µM
- IC50 [2, 6]: 0.0372 ± 0.00022 mM
- IC50 ([2]; experimental IC50 yeast α-glucosidase, restated in mM in docking section): 0.037 mM
- IC50 ([3]; compounds, Table 2): > 10000 µM
- IC50 DPPH ([3]; compounds, Table 2): no activity
- IC50 [4]: > 3000 µM

SMILES: O=C1O[C@H]([C@@H](O)CO)C(O)=C1O [Vitamin C, reference compound]
- IC50 ([3]; compounds, Table 2): 158 ± 1.9 µM
- IC50 DPPH ([3]; fractions A-G, Table 1): 28 ± 1560 µg/mL (≈ 159 µM)

SMILES: Cc1cc(C(C)(C)C)c(O)c(C(C)(C)C)c1 [BHT, reference compound]
- IC50 ([3]; compounds, Table 2): 328 ± 0.56 µM
- IC50 DPPH ([3]; fractions A-G, Table 1): 72 ± 350 µg/mL (≈ 327 µM)

SMILES: C=C(C)[C@@H]1CC[C@]2(C(=O)N(C(=O)NC3CCCCC3)C3CCCCC3)CC[C@]3(C)[C@H](CC[C@@H]4[C@@]5(C)CC[C@H](OC(=O)CCCCC)C(C)(C)[C@@H]5CC[C@]43C)[C@@H]12 [Compound 2l]
- IC50 [1]: > 3000 µM
- IC50 [2, 5]: > 0.6 mM
- IC50 ([3]; compounds, Table 2): > 10000 µM
- IC50 [4]: > 3000 µM

SMILES: C=C(C)[C@@H]1CC[C@]2(C(=O)O)CC[C@]3(C)[C@H](CC[C@@H]4[C@@]5(C)CC[C@H](OC(=O)CC)C(C)(C)[C@@H]5CC[C@]43C)[C@@H]12 [Compound 2b]
- IC50 [1]: > 3000 µM
- IC50 [2, 5]: 0.0433 ± 0.00019 mM
- IC50 ([3]; compounds, Table 2): > 10000 µM
- IC50 [4]: > 3000 µM

SMILES: C[C@@H]1O[C@@H](O[C@H]2[C@H](Oc3c(-c4ccc(O)c(O)c4)oc4cc(O)cc(O)c4c3=O)O[C@@H](C)[C@H](O)[C@H]2O)[C@H](O)[C@H](O)[C@H]1O [Compound 6, horridin]
- IC50 [1]: > 3000 µM
- IC50 [2, 6]: > 0.6 mM
- IC50 ([3]; compounds, Table 2): 42.8 ± 0.83 µM
- IC50 [4]: > 3000 µM

SMILES: C=C(C)[C@@H]1CC[C@]2(C(=O)O)CC[C@]3(C)[C@H](CC[C@@H]4[C@@]5(C)CC[C@H](OC(=O)CCC)C(C)(C)[C@@H]5CC[C@]43C)[C@@H]12 [Compound 2c]
- IC50 [1]: > 3000 µM
- IC50 [2, 5]: 0.158 ± 0.00122 mM
- IC50 ([3]; compounds, Table 2): > 10000 µM
- IC50 [4]: > 3000 µM

SMILES: C=C(C)[C@@H]1CC[C@]2(C(=O)O)CC[C@]3(C)[C@H](CC[C@@H]4[C@@]5(C)CC[C@H](OC(C)=O)C(C)(C)[C@@H]5CC[C@]43C)[C@@H]12 [Compound 2a]
- IC50 [1]: > 3000 µM
- IC50 [2, 5]: 0.0281 ± 0.00076 mM
- IC50 ([3]; compounds, Table 2): > 10000 µM
- IC50 [4]: > 3000 µM

SMILES: C=C(C)[C@@H]1CC[C@]2(C(=O)O)CC[C@]3(C)[C@H](CC[C@@H]4[C@@]5(C)CC[C@H](O)C(C)(C)[C@@H]5CC[C@]43C)[C@@H]12 [Compound 2, betunilic acid]
- mode of inhibition (yeast α-glucosidase; Lineweaver–Burk plots, 0.063 and 1.3 mM of inhibitor): mixed mode inhibitor
- K'i (uncompetitive component, from intercept plot) (yeast α-glucosidase; secondary plot of intercept vs [I], Figure 4S): 0.019 mM
- IC50 [1]: > 3000 µM
- IC50 [2, 5]: 0.0163 ± 0.00203 mM
- IC50 ([2]; restated in mM in docking section, read-out: experimental IC50 yeast α-glucosidase): 0.016 mM
- IC50 ([3]; compounds, Table 2): > 10000 µM
- IC50 DPPH ([3]; compounds, Table 2): no activity
- IC50 [4]: > 3000 µM

SMILES: C=C(C)[C@@H]1CC[C@]2(C(=O)N(C(=O)NC3CCCCC3)C3CCCCC3)CC[C@]3(C)[C@H](CC[C@@H]4[C@@]5(C)CC[C@H](OC(=O)CC)C(C)(C)[C@@H]5CC[C@]43C)[C@@H]12 [Compound 2i]
- IC50 [1]: > 3000 µM
- IC50 [2, 5]: 0.368 ± 0.00164 mM
- IC50 ([3]; compounds, Table 2): > 10000 µM
- IC50 [4]: > 3000 µM

SMILES: C=C(C)[C@@H]1CC[C@]2(C(=O)O)CC[C@]3(C)[C@H](CC[C@@H]4[C@@]5(C)CC[C@H](OC(=O)c6ccccc6)C(C)(C)[C@@H]5CC[C@]43C)[C@@H]12 [Compound 2f]
- IC50 [1]: > 3000 µM
- IC50 [2, 5]: 0.0731 ± 0.00096 mM
- IC50 ([3]; compounds, Table 2): > 10000 µM
- IC50 [4]: > 3000 µM

SMILES: C=C(C)[C@@H]1CC[C@]2(C(=O)O)CC[C@]3(C)[C@H](CC[C@@H]4[C@@]5(C)CC[C@H](OC(=O)CCCC)C(C)(C)[C@@H]5CC[C@]43C)[C@@H]12 [Compound 2d]
- IC50 [1]: > 3000 µM
- IC50 [2, 5]: 0.269 ± 0.00322 mM
- IC50 ([3]; compounds, Table 2): > 10000 µM
- IC50 [4]: > 3000 µM

SMILES: C[C@H]1O[C@H](O[C@H]2[C@H](O)[C@@H](O)[C@@H](O[C@H]3[C@H](O)[C@@H](O)C(O)O[C@@H]3CO)O[C@@H]2CO)[C@H](O)[C@@H](O)[C@@H]1N[C@H]1C=C(CO)[C@@H](O)[C@H](O)[C@H]1O (stereo partly drawn) [Acarbose, reference compound]
- IC50 [1]: 7.9 ± 0.94 µM
- IC50 Maltase ([1]; fractions A-G, Table 1): 5.1 ± 940 µg/mL (≈ 7.9 µM)

SMILES: C=C(C)[C@@H]1CC[C@]2(C(=O)N(C(=O)NC3CCCCC3)C3CCCCC3)CC[C@]3(C)[C@H](CC[C@@H]4[C@@]5(C)CC[C@H](OC(=O)CCC)C(C)(C)[C@@H]5CC[C@]43C)[C@@H]12 [Compound 2j]
- IC50 [1]: > 3000 µM
- IC50 [2, 5]: > 0.6 mM
- IC50 ([3]; compounds, Table 2): > 10000 µM
- IC50 [4]: > 3000 µM

SMILES: C=C(C)[C@@H]1CC[C@]2(C(=O)N(C(=O)NC3CCCCC3)C3CCCCC3)CC[C@]3(C)[C@H](CC[C@@H]4[C@@]5(C)CC[C@H](O)C(C)(C)[C@@H]5CC[C@]43C)[C@@H]12 [Compound 2g]
- IC50 [1]: > 3000 µM
- IC50 [2, 5]: 0.23 ± 0.00011 mM
- IC50 ([3]; compounds, Table 2): > 10000 µM
- IC50 [4]: > 3000 µM
- melting point: 193 to 194 °C

SMILES: C=C(C)[C@@H]1CC[C@]2(C(=O)N(C(=O)NC3CCCCC3)C3CCCCC3)CC[C@]3(C)[C@H](CC[C@@H]4[C@@]5(C)CC[C@H](OC(C)=O)C(C)(C)[C@@H]5CC[C@]43C)[C@@H]12 [Compound 2h]
- IC50 [1]: > 3000 µM
- IC50 [2, 5]: 0.281 ± 0.00089 mM
- IC50 ([3]; compounds, Table 2): > 10000 µM
- IC50 [4]: > 3000 µM

SMILES: C[C@@H]1O[C@@H](O[C@H]2[C@H](Oc3c(-c4ccc(O)cc4)oc4cc(O)cc(O)c4c3=O)O[C@@H](C)[C@H](O)[C@H]2O)[C@H](O)[C@H](O)[C@H]1O [Compound 5, kaempferol-3-O-α-L-rhamnopyranosyl-(1→2)-α-L-rhamnopyrano side]
- IC50 [1]: > 3000 µM
- IC50 [2, 6]: > 0.6 mM
- IC50 ([3]; compounds, Table 2): 6019 ± 1.36 µM
- IC50 [4]: > 3000 µM

SMILES: C=C(C)[C@@H]1CC[C@]2(C(=O)N(C(=O)NC3CCCCC3)C3CCCCC3)CC[C@]3(C)[C@H](CC[C@@H]4[C@@]5(C)CC[C@H](OC(=O)CCCC)C(C)(C)[C@@H]5CC[C@]43C)[C@@H]12 [Compound 2k]
- IC50 [1]: > 3000 µM
- IC50 [2, 5]: > 0.6 mM
- IC50 ([3]; compounds, Table 2): > 10000 µM
- IC50 [4]: > 3000 µM
